Calls of active or inactive are those of the source. The rule behind the calls is not given here.
Tested on: CCRIS mutagenicity, Ames/micronucleus/aberration tests
Experiment: CCRIS mutagenicity studies
[1] = Test System: AMES SALMONELLA TYPHIMURIUM, Strain/Indicator: TA98, Metabolic Activation: NONE, Method: STANDARD PLATE
[2] = Test System: AMES SALMONELLA TYPHIMURIUM, Strain/Indicator: TA98, Metabolic Activation: RAT, LIVER, S-9, AROCLOR 1254, Method: STANDARD PLATE
[3] = Test System: AMES SALMONELLA TYPHIMURIUM, Strain/Indicator: TA100, Metabolic Activation: NONE, Method: STANDARD PLATE
[4] = Test System: AMES SALMONELLA TYPHIMURIUM, Strain/Indicator: TA100, Metabolic Activation: RAT, LIVER, S-9, AROCLOR 1254, Method: STANDARD PLATE
[5] = Test System: AMES SALMONELLA TYPHIMURIUM, Strain/Indicator: TA1535, Metabolic Activation: NONE, Method: STANDARD PLATE
[6] = Test System: AMES SALMONELLA TYPHIMURIUM, Strain/Indicator: TA1535, Metabolic Activation: RAT, LIVER, S-9, AROCLOR 1254, Method: STANDARD PLATE

COc1ccc(C=CC(=O)c2ccccc2)cc1
mutagenic call [1]: inactive; negative | mutagenic call [2]: inactive; negative | mutagenic call [3]: inactive; negative | mutagenic call [4]: inactive; negative

O=C1CNC(=O)N1
mutagenic call (Test System: AMES SALMONELLA TYPHIMURIUM, Strain/Indicator: TA97, Metabolic Activation: NONE, Method: STANDARD PLATE): inactive; negative | mutagenic call (Test System: AMES SALMONELLA TYPHIMURIUM, Strain/Indicator: TA97, Metabolic Activation: RAT, LIVER, S-9, AROCLOR 1254, Method: STANDARD PLATE): inactive; negative | mutagenic call [1]: inactive; negative | mutagenic call [2]: inactive; negative | mutagenic call [3]: inactive; negative | mutagenic call [4]: inactive; negative | mutagenic call (Test System: AMES SALMONELLA TYPHIMURIUM, Strain/Indicator: TA102, Metabolic Activation: NONE, Method: STANDARD PLATE): inactive; negative | mutagenic call (Test System: AMES SALMONELLA TYPHIMURIUM, Strain/Indicator: TA102, Metabolic Activation: RAT, LIVER, S-9, AROCLOR 1254, Method: STANDARD PLATE): inactive; negative

O=c1oc2cc(O)ccc2c2oc3cc(O)ccc3c12
mutagenic call (End Point: IN VITRO CHROMOSOMAL ABERRATIONS, Test System: HUMAN PERIPHERAL LYMPHOCYTES, Metabolic Activation: NONE): active; positive (structural changes) | mutagenic call (Test System: AMES SALMONELLA TYPHIMURIUM, Strain/Indicator: TA98, Metabolic Activation: HAMSTER, LIVER, S-9, AROCLOR 1254, Method: STANDARD PLATE): inactive; negative | mutagenic call [1]: inactive; negative | mutagenic call [2]: inactive; negative | mutagenic call (Test System: AMES SALMONELLA TYPHIMURIUM, Strain/Indicator: TA100, Metabolic Activation: HAMSTER, LIVER, S-9, AROCLOR 1254, Method: STANDARD PLATE): inactive; negative | mutagenic call [3]: inactive; negative | mutagenic call [4]: inactive; negative | mutagenic call (Test System: AMES SALMONELLA TYPHIMURIUM, Strain/Indicator: TA1535, Metabolic Activation: HAMSTER, LIVER, S-9, AROCLOR 1254, Method: STANDARD PLATE): inactive; negative | mutagenic call [5]: inactive; negative | mutagenic call [6]: inactive; negative | mutagenic call (Test System: AMES SALMONELLA TYPHIMURIUM, Strain/Indicator: TA1537, Metabolic Activation: HAMSTER, LIVER, S-9, AROCLOR 1254, Method: STANDARD PLATE): inactive; negative | mutagenic call (Test System: AMES SALMONELLA TYPHIMURIUM, Strain/Indicator: TA1537, Metabolic Activation: NONE, Method: STANDARD PLATE): inactive; negative | mutagenic call (Test System: AMES SALMONELLA TYPHIMURIUM, Strain/Indicator: TA1537, Metabolic Activation: RAT, LIVER, S-9, AROCLOR 1254, Method: STANDARD PLATE): inactive; negative | mutagenic call (Test System: AMES SALMONELLA TYPHIMURIUM, Strain/Indicator: TA1538, Metabolic Activation: HAMSTER, LIVER, S-9, AROCLOR 1254, Method: STANDARD PLATE): inactive; negative | mutagenic call (Test System: AMES SALMONELLA TYPHIMURIUM, Strain/Indicator: TA1538, Metabolic Activation: NONE, Method: STANDARD PLATE): inactive; negative | mutagenic call (Test System: AMES SALMONELLA TYPHIMURIUM, Strain/Indicator: TA1538, Metabolic Activation: RAT, LIVER, S-9, AROCLOR 1254, Method: STANDARD PLATE): inactive; negative | mutagenic call (Test System: Ames Salmonella typhimurium, Strain/Indicator: TA102, Metabolic Activation: None, Method: Preincubation): inactive; negative | mutagenic call (Test System: Ames Salmonella typhimurium, Strain/Indicator: TA102, Metabolic Activation: Rat, Liver, S-9, Aroclor 1254 in 0.154 M KCl, Method: Preincubation): inactive; negative | mutagenic call (Test System: CHINESE HAMSTER LUNG CELLS, Strain/Indicator: V-79 (HPRT)/6-THIOGUANINE, Metabolic Activation: NONE): active; positive | mutagenic call (Test System: HUMAN LYMPHOBLASTOID CELLS, Strain/Indicator: AHH-1 CELLS(TK+/TK-), Metabolic Activation: NONE, Method: SUSPENSION/PLATE): active; positive | mutagenic call (Test System: SYRIAN HAMSTER EMBRYO CELLS, Strain/Indicator: HPRT/6-THIOGUANINE, Metabolic Activation: NONE, Method: PLATE): active; positive

C=CC(=C)CCC=C(C)C
mutagenic call (End Point: E. coli, Strain/Indicator: WP2uvrA/pKM101, Metabolic Activation: None, Method: Preincubation): inactive; negative | mutagenic call (End Point: E. coli, Strain/Indicator: WP2uvrA/pKM101, Metabolic Activation: Rat, Liver, S-9, Aroclor 1254 (10%), Method: Preincubation): inactive; negative | mutagenic call (End Point: In vivo micronucleus, Test System: Micronucleated normochromatic erythrocytes, Species: Mouse, Strain/Sex: B6C3F1 / Female, Route: Oral): inactive; negative | mutagenic call (End Point: In vivo micronucleus, Test System: Micronucleated normochromatic erythrocytes, Species: Mouse, Strain/Sex: B6C3F1 / Male, Route: Oral): inactive; negative | mutagenic call (Test System: AMES SALMONELLA TYPHIMURIUM, Strain/Indicator: TA97A, Metabolic Activation: NONE, Method: STANDARD PLATE): inactive; negative | mutagenic call (Test System: AMES SALMONELLA TYPHIMURIUM, Strain/Indicator: TA97A, Metabolic Activation: RAT, LIVER, S-9, AROCLOR 1254, Method: STANDARD PLATE): inactive; negative | mutagenic call [1]: inactive; negative | mutagenic call [2]: inactive; negative | mutagenic call [3]: inactive; negative | mutagenic call [4]: inactive; negative | mutagenic call [5]: inactive; negative | mutagenic call [6]: inactive; negative | mutagenic call (Test System: Ames Salmonella typhimurium, Strain/Indicator: TA97, Metabolic Activation: Hamster, Liver, S-9, Aroclor 1254 (10%), Method: Preincubation): inactive; negative | mutagenic call (Test System: Ames Salmonella typhimurium, Strain/Indicator: TA97, Metabolic Activation: Hamster, Liver, S-9, Aroclor 1254 (30%), Method: Preincubation): inactive; negative | mutagenic call (Test System: Ames Salmonella typhimurium, Strain/Indicator: TA97, Metabolic Activation: None, Method: Preincubation): inactive; negative | mutagenic call (Test System: Ames Salmonella typhimurium, Strain/Indicator: TA97, Metabolic Activation: Rat, Liver, S-9, Aroclor 1254 (10%), Method: Preincubation): inactive; negative | mutagenic call (Test System: Ames Salmonella typhimurium, Strain/Indicator: TA97, Metabolic Activation: Rat, Liver, S-9, Aroclor 1254 (30%), Method: Preincubation): inactive; negative | mutagenic call (Test System: Ames Salmonella typhimurium, Strain/Indicator: TA98, Metabolic Activation: Hamster, Liver, S-9, Aroclor 1254 (10%), Method: Preincubation): inactive; negative | mutagenic call (Test System: Ames Salmonella typhimurium, Strain/Indicator: TA98, Metabolic Activation: Hamster, Liver, S-9, Aroclor 1254 (30%), Method: Preincubation): inactive; negative | mutagenic call (Test System: Ames Salmonella typhimurium, Strain/Indicator: TA98, Metabolic Activation: None, Method: Preincubation): inactive; negative | mutagenic call (Test System: Ames Salmonella typhimurium, Strain/Indicator: TA98, Metabolic Activation: Rat, Liver, S-9, Aroclor 1254 (10%), Method: Preincubation): inactive; negative | mutagenic call (Test System: Ames Salmonella typhimurium, Strain/Indicator: TA98, Metabolic Activation: Rat, Liver, S-9, Aroclor 1254 (30%), Method: Preincubation): inactive; negative | mutagenic call (Test System: Ames Salmonella typhimurium, Strain/Indicator: TA100, Metabolic Activation: Hamster, Liver, S-9, Aroclor 1254 (10%), Method: Preincubation): inactive; negative | mutagenic call (Test System: Ames Salmonella typhimurium, Strain/Indicator: TA100, Metabolic Activation: Hamster, Liver, S-9, Aroclor 1254 (30%), Method: Preincubation): inactive; negative | mutagenic call (Test System: Ames Salmonella typhimurium, Strain/Indicator: TA100, Metabolic Activation: None, Method: Preincubation): inactive; negative | mutagenic call (Test System: Ames Salmonella typhimurium, Strain/Indicator: TA100, Metabolic Activation: Rat, Liver, S-9, Aroclor 1254 (10%), Method: Preincubation): inactive; negative | mutagenic call (Test System: Ames Salmonella typhimurium, Strain/Indicator: TA100, Metabolic Activation: Rat, Liver, S-9, Aroclor 1254 (30%), Method: Preincubation): inactive; negative | mutagenic call (Test System: Ames Salmonella typhimurium, Strain/Indicator: TA1535, Metabolic Activation: Hamster, Liver, S-9, Aroclor 1254 (10%), Method: Preincubation): inactive; negative | mutagenic call (Test System: Ames Salmonella typhimurium, Strain/Indicator: TA1535, Metabolic Activation: Hamster, Liver, S-9, Aroclor 1254 (30%), Method: Preincubation): inactive; negative | mutagenic call (Test System: Ames Salmonella typhimurium, Strain/Indicator: TA1535, Metabolic Activation: None, Method: Preincubation): inactive; negative | mutagenic call (Test System: Ames Salmonella typhimurium, Strain/Indicator: TA1535, Metabolic Activation: Rat, Liver, S-9, Aroclor 1254 (10%), Method: Preincubation): inactive; negative | mutagenic call (Test System: Ames Salmonella typhimurium, Strain/Indicator: TA1535, Metabolic Activation: Rat, Liver, S-9, Aroclor 1254 (30%), Method: Preincubation): inactive; negative | mutagenic call (Test System: CHINESE HAMSTER V-79, Strain/Indicator: V-79/6-THIOGUANINE (HGPRT), Metabolic Activation: NONE, Method: PREINCUBATION): inactive; negative | mutagenic call (Test System: CHINESE HAMSTER V-79, Strain/Indicator: V-79/6-THIOGUANINE (HGPRT), Metabolic Activation: RAT, LIVER, S-9, Method: PREINCUBATION): inactive; negative | mutagenic call (Test System: E. coli, Strain/Indicator: WP2 IC185 trpE65, Metabolic Activation: None, Method: Plate incorporation (Test material solvent: ethanol)): inactive; negative | mutagenic call (Test System: E. coli, Strain/Indicator: WP2 IC202 trpE65 oxyR/pKM101, Metabolic Activation: None, Method: Plate incorporation (Test material solvent: ethanol)): inactive; negative
